The record followed here is US20250092016A1, “COMPOUNDS AND COMPOSITIONS FOR THE TREATMENT OF CORONAVIRAL RELATED DISEASES” (priority 2021, published 2025).

By IC50 is commonly meant the concentration that gives 50% inhibition.

The target in this assay is SARS-CoV-2 main protease (M^pro) (Severe acute respiratory syndrome coronavirus 2, UniProt P0DTD1). In words: Rapid-Fire MS Biochemical Assay measuring Mpro activity (5 nM Mpro). The following applies: Table 1B, Mpro inhibition, 5 μM substrate peptide, 120 min, read-out: Rapid-Fire Assay IC50.
With `Cc1cc(Cl)cnc1N1C[C@@H](C#N)N(c2cncc3ccccc23)C1=O` (single isomer, unassigned) [Compound 80b], the IC50 is more than 1000 nM.
In the case of `N#C[C@H]1CN(c2ccc(C(F)(F)F)nn2)C(=O)N1c1cncc2ccccc12` (single isomer, unassigned) [Compound 81a], the IC50 is less than 20 nM.
The value for `N#C[C@@H]1CN(c2ccc(C(F)(F)F)nn2)C(=O)N1c1cncc2ccccc12` (single isomer, unassigned) [Compound 81b] was more than 1000 nM; that for `Cc1ccc(C(F)(F)F)nc1N1C[C@H](C#N)N(c2cncc3ccccc23)C1=O` (single isomer, unassigned) [Compound 82a] was 20 to 200 nM.
The value for `Cc1ccc(C(F)(F)F)nc1N1C[C@@H](C#N)N(c2cncc3ccccc23)C1=O` (single isomer, unassigned) [Compound 82b] was more than 1000 nM; that for `N#C[C@H]1CN(c2ccc(OC(F)F)cc2F)C(=O)N1c1cncc2ccccc12` (single isomer, unassigned) [Compound 83a] was 20 to 200 nM; that for `N#C[C@@H]1CN(c2ccc(OC(F)F)cc2F)C(=O)N1c1cncc2ccccc12` (single isomer, unassigned) [Compound 83b] was more than 1000 nM.
With `CC(C)(O)c1ccc(N2C[C@H](C#N)N(c3cncc4ccccc34)C2=O)cc1` (single isomer, unassigned) [Compound 84a], the IC50 was 20 to 200 nM.
The value for `CC(C)(O)c1ccc(N2C[C@@H](C#N)N(c3cncc4ccccc34)C2=O)cc1` (single isomer, unassigned) [Compound 84b] was more than 1000 nM.
For `CS(=O)(=O)c1ccc2cncc(N3C(=O)N(c4ccc(F)c(F)c4)C[C@@H]3C#N)c2c1` (single isomer, unassigned) [Compound 85a], the IC50 was less than 20 nM.
To `CS(=O)(=O)c1ccc2cncc(N3C(=O)N(c4ccc(F)c(F)c4)C[C@H]3C#N)c2c1` (single isomer, unassigned) [Compound 85b] belongs more than 1000 nM.
To `CS(=O)(=O)c1ccc2cncc(N3C(=O)N(c4cc(F)cc(F)c4)C[C@@H]3C#N)c2c1` (single isomer, unassigned) [Compound 86a] belongs 20 to 200 nM; to `CS(=O)(=O)c1ccc2cncc(N3C(=O)N(c4cc(F)cc(F)c4)C[C@H]3C#N)c2c1` (single isomer, unassigned) [Compound 86b], more than 1000 nM; to `N#C[C@H]1CN(c2ccc(F)c(Cl)c2)C(=O)N1c1cncc2ccccc12` (single isomer, unassigned) [Compound 87a], less than 20 nM.
To `N#C[C@@H]1CN(c2ccc(F)c(Cl)c2)C(=O)N1c1cncc2ccccc12` (single isomer, unassigned) [Compound 87b] belongs more than 1000 nM; to `Cc1ncc(C(F)(F)F)cc1N1C[C@H](C#N)N(c2cncc3ccccc23)C1=O` (single isomer, unassigned) [Compound 88a], less than 20 nM.
In the case of `Cc1ncc(C(F)(F)F)cc1N1C[C@@H](C#N)N(c2cncc3ccccc23)C1=O` (single isomer, unassigned) [Compound 88b], the IC50 is more than 1000 nM.
In the case of `N#C[C@H]1CN(c2cccc(OC(F)F)c2)C(=O)N1c1cncc2ccccc12` (single isomer, unassigned) [Compound 89a], the IC50 is less than 20 nM.
For `N#C[C@@H]1CN(c2cccc(OC(F)F)c2)C(=O)N1c1cncc2ccccc12` (single isomer, unassigned) [Compound 89b], the IC50 was more than 1000 nM.
To `N#Cc1ccc(C(F)(F)F)cc1N1C[C@H](C#N)N(c2cncc3ccccc23)C1=O` (single isomer, unassigned) [Compound 90a] belongs less than 20 nM; to `N#Cc1ccc(C(F)(F)F)cc1N1C[C@@H](C#N)N(c2cncc3ccccc23)C1=O` (single isomer, unassigned) [Compound 90b], more than 1000 nM.
The value for `N#C[C@H]1CN(c2ccc(OC(F)(F)F)cc2)C(=O)N1c1cncc2ccccc12` (single isomer, unassigned) [Compound 91a] was less than 20 nM; that for `N#C[C@@H]1CN(c2ccc(OC(F)(F)F)cc2)C(=O)N1c1cncc2ccccc12` (single isomer, unassigned) [Compound 91b] was more than 1000 nM.
To `N#C[C@H]1CN(c2cccc(OC(F)(F)F)c2)C(=O)N1c1cncc2ccccc12` (single isomer, unassigned) [Compound 92a] belongs less than 20 nM; to `N#C[C@@H]1CN(c2cccc(OC(F)(F)F)c2)C(=O)N1c1cncc2ccccc12` (single isomer, unassigned) [Compound 92b], 200 to 1000 nM.
Consider `N#C[C@H]1CN(c2cnc(C(F)(F)F)nc2)C(=O)N1c1cncc2ccccc12` (single isomer, unassigned) [Compound 93a], for which the IC50 is less than 20 nM.
To `N#C[C@@H]1CN(c2cnc(C(F)(F)F)nc2)C(=O)N1c1cncc2ccccc12` (single isomer, unassigned) [Compound 93b] belongs more than 1000 nM; to `CC(C)c1ccc(N2C[C@H](C#N)N(c3cncc4ccccc34)C2=O)cn1` (single isomer, unassigned) [Compound 94a], less than 20 nM; to `CC(C)c1ccc(N2C[C@@H](C#N)N(c3cncc4ccccc34)C2=O)cn1` (single isomer, unassigned) [Compound 94b], more than 1000 nM.
To `COc1nc(C(F)(F)F)ccc1N1C[C@H](C#N)N(c2cncc3ccccc23)C1=O` (single isomer, unassigned) [Compound 95a] belongs less than 20 nM; to `COc1nc(C(F)(F)F)ccc1N1C[C@@H](C#N)N(c2cncc3ccccc23)C1=O` (single isomer, unassigned) [Compound 95b], more than 1000 nM; to `Cn1c(C(F)(F)F)ccc(N2C[C@H](C#N)N(c3cncc4ccccc34)C2=O)c1=O` (single isomer, unassigned) [Compound 96a], 20 to 200 nM.
To `Cn1c(C(F)(F)F)ccc(N2C[C@@H](C#N)N(c3cncc4ccccc34)C2=O)c1=O` (single isomer, unassigned) [Compound 96b] belongs more than 1000 nM; to `N#C[C@H]1CN(c2ccc(C(F)(F)F)cn2)C(=O)N1c1cncc2ccccc12` (single isomer, unassigned) [Compound 97a], less than 20 nM.
As to `N#C[C@@H]1CN(c2ccc(C(F)(F)F)cn2)C(=O)N1c1cncc2ccccc12` (single isomer, unassigned) [Compound 97b], the IC50 was more than 1000 nM.
The value for `Cc1cc(N2C[C@H](C#N)N(c3cncc4ccccc34)C2=O)cnc1C` (single isomer, unassigned) [Compound 98a] was less than 20 nM; that for `Cc1cc(N2C[C@@H](C#N)N(c3cncc4ccccc34)C2=O)cnc1C` (single isomer, unassigned) [Compound 98b] was more than 1000 nM; that for `N#C[C@H]1CN(c2ccc(C(F)(F)F)cc2)C(=O)N1c1cncc2ccccc12` (single isomer, unassigned) [Compound 99a] was less than 20 nM.
To `N#C[C@@H]1CN(c2ccc(C(F)(F)F)cc2)C(=O)N1c1cncc2ccccc12` (single isomer, unassigned) [Compound 99b] belongs 200 to 1000 nM; to `COc1ncc(C(F)(F)F)cc1N1C[C@H](C#N)N(c2cncc3ccccc23)C1=O` (single isomer, unassigned) [Compound 100a], less than 20 nM.
The value for `COc1ncc(C(F)(F)F)cc1N1C[C@@H](C#N)N(c2cncc3ccccc23)C1=O` (single isomer, unassigned) [Compound 100b] was 200 to 1000 nM; that for `Cc1ccc(OC(F)F)cc1N1C[C@H](C#N)N(c2cncc3ccccc23)C1=O` (single isomer, unassigned) [Compound 101a] was less than 20 nM.
`Cc1ccc(OC(F)F)cc1N1C[C@@H](C#N)N(c2cncc3ccccc23)C1=O` (single isomer, unassigned) [Compound 101b]: the IC50 was more than 1000 nM.
The value for `Cc1cc(N2C[C@H](C#N)N(c3cncc4ccccc34)C2=O)cc(C)n1` (single isomer, unassigned) [Compound 102a] was less than 20 nM.
The value for `Cc1cc(N2C[C@@H](C#N)N(c3cncc4ccccc34)C2=O)cc(C)n1` (single isomer, unassigned) [Compound 102b] was 200 to 1000 nM.
`COc1cc(Cl)ccc1N1C[C@H](C#N)N(c2cncc3ccccc23)C1=O` (single isomer, unassigned) [Compound 103a]: the IC50 was less than 20 nM.
Turning to `COc1cc(Cl)ccc1N1C[C@@H](C#N)N(c2cncc3ccccc23)C1=O` (single isomer, unassigned) [Compound 103b], the IC50 was more than 1000 nM.
The value for `N#C[C@H]1CN(c2cncc(C(F)(F)F)c2)C(=O)N1c1cncc2ccccc12` (single isomer, unassigned) [Compound 104a] was less than 20 nM.
The value for `N#C[C@@H]1CN(c2cncc(C(F)(F)F)c2)C(=O)N1c1cncc2ccccc12` (single isomer, unassigned) [Compound 104b] was more than 1000 nM.
The value for `COc1ccc(F)cc1N1C[C@H](C#N)N(c2cncc3ccccc23)C1=O` (single isomer, unassigned) [Compound 105a] was less than 20 nM.
Regarding `COc1ccc(F)cc1N1C[C@@H](C#N)N(c2cncc3ccccc23)C1=O` (single isomer, unassigned) [Compound 105b], the IC50 was more than 1000 nM.
The value for `N#C[C@H]1CN(c2cccc(C(F)(F)F)c2)C(=O)N1c1cncc2ccccc12` (single isomer, unassigned) [Compound 106a] was less than 20 nM; that for `COc1cc(C(F)(F)F)ncc1N1C[C@H](C#N)N(c2cncc3ccccc23)C1=O` (single isomer, unassigned) [Compound 107a] was 20 to 200 nM; that for `COc1cc(C(F)(F)F)ncc1N1C[C@@H](C#N)N(c2cncc3ccccc23)C1=O` (single isomer, unassigned) [Compound 107b] was more than 1000 nM.
Take `N#C[C@H]1CN(c2ccc(C(F)F)cc2)C(=O)N1c1cncc2ccccc12` (single isomer, unassigned) [Compound 108a]: the IC50 was less than 20 nM.
To `N#C[C@@H]1CN(c2ccc(C(F)F)cc2)C(=O)N1c1cncc2ccccc12` (single isomer, unassigned) [Compound 108b] belongs more than 1000 nM.
